Legend:
[1] = Crystal form stability, high temperature (60℃) and accelerated (40℃, RH75%) tests; assay type: physicochemical
[2] = Water solubility of the crystal form at 25℃ (Chinese Pharmacopoeia 2015, part IV); assay type: physicochemical

C=CC(=O)Nc1cc(Nc2nccc(-c3cn(C)c4ccccc34)n2)c(OC)cc1N(C)CCN(C)C [AZD9291氘代物甲磺酸盐新盐型]
crystal form transformation (XRD) ([1]; 40℃, RH75%, accelerated stability, 0, 5 and 10 days): 未发生 晶型转变 | appearance, colour and crystal form change ([1]; high temperature (60℃, humidity not limited) and accelerated (40℃, RH75%), 5 and 10 days): 外观色泽及晶 型均无变化 | increase in solubility relative to AZD9291 deuterated compound mesylate (WO2018214886A1 and CN201810495698.7) [2]: 3 fold

Source: CN111909135A, “一种azd9291氘代物甲磺酸盐新盐型及其制备方法” (Tianjin University, priority 2020, dated 2020)
